Results: patent US7026111B2, “Methods and reagents for improved cell-based assays” (Beckman Coulter, Inc., priority 2001, dated 2006)

Assays:
Caspase 6 [1] = assay: Caspase 6 CellProbe assay with U-937 suspension cells; assay type: cell-based
Experimental: (§1) To initiate such assays, 25 μl of Caspase CellProbe Reagent™ (Beckman Coulter) was added to a suspension of 1×10^5 U-937 cells in 110 μl of culture medium in a 96-well microtiter plate. Cells were incubated for one hour, and had been either uninduced or induced by prior incubation in the presence of 2.5 μM Camptothecin. The final concentration of the Caspase CellProbe Reagent™ was 30 μM.
(§2) In the Figures, the 5 series of columns reflect results obtained with no glycerol, 20% glycerol, 30% glycerol, 40% glycerol and 50% glycerol. The individual columns (left to right) within each data series reflect results for: unmixed sample—induced; unmixed sample—uninduced; mixed sample—induced; and mixed sample—uninduced.

Caspase 3 = Caspase 3 CellProbe assay with U-937 suspension cells; assay type: cell-based
Experimental: as §1, §2

Caspase 1 = Caspase 1 CellProbe assay with U-937 suspension cells; assay type: cell-based
Experimental: as §1, §2

Caspase 6 [2] = assay: Caspase 6 CellProbe assay in HeLa cells (Example 6); assay type: cell-based; settings: HeLa 1.5×10^4 cells/well, 30 μM CellProbe, 1 hour
Experimental: To initiate such assays, Caspase CellProbe Reagent™ (Beckman Coulter) is added to a suspension of 1.5×10^4 HeLa cells/well in a 96-well microtiter plate. The final concentration of the Caspase CellProbe Reagent™ was 30 μM. Reaction is for 1 hour and is as described in Example 1.

HeLa cells [3] = assay: CellProbe assay in HeLa cells with betaine (Example 4); assay type: cell-based; settings: HeLa 1.5×10^4/well, 30 μM CellProbe substrate; particularly if unmixed
Experimental: For such experiments, HeLa cells are seeded overnight at 1.5×10^4/well and provided with 30 μM CellProbe substrate (final concentration).

HeLa cells [4] = assay: CellProbe assay in HeLa cells with betaine (Example 5); assay type: cell-based; settings: betaine 2.0-2.4 M; HeLa 7.5×10^3/well, 25 μM CellProbe substrate; particularly if unmixed
Experimental: The enhanced detection sensitivity of the assays of the present invention resulting from the use of Betaine (at 2.0, 2.1, 2.2, 2.3, 2.4 M) is shown in FIG. 8. For such experiments, HeLa cells are seeded overnight at 7.5×10^3/well and provided with CellProbe substrate (25 μM final concentration). […] Results of similar assays conducted with 35% DMSO are shown for comparison.

Caspase 6 [5] = assay: Caspase 6 CellProbe assay for apoptosis using HeLa cells (Example 2); assay type: cell-based
Experimental: To initiate 110 such assays, Caspase CellProbe Reagent™ (Beckman Coulter) is added to a suspension of 1.5×10^4 HeLa cells/well in a 96-well microtiter plate. The final concentration of the Caspase CellProbe Reagent™ was 30 μM. Reaction is for 1 hour.
In FIG. 5, and in the examples below, the Fluorescence Ratio is defined as: Fluorescence Ratio=Induced Fluorescence/Uninduced Fluorescence where the Induced Fluorescence is the difference between the 1 Hour Value and the Start of Assay Value, and the Uninduced Fluorescence is the difference between the 1 Hour Value and the Uninduced Start Value. In FIG. 5, data are plotted as a function of potassium glutamate or DMSO concentration. The dark columns indicate results obtained upon mixing the samples, while the light columns indicate results obtained when the samples were not mixed after the addition of glutamate.

aminopeptidase = settings: concentrations of approximately 10 mM; cited from earlier work
Caspase = assay: One hour kinetic assay detection of Caspase using U-937 cells; assay type: cell-based; settings: above the 50% DMSO concentration; due to non-specific signal from uninduced cell controls
Experimental: as §1
The results shown in FIG. 4 is of kinetic signal from twenty fluorescence readings of the one hour assay. In FIG. 4, lines containing a diamond (♦) denote unmixed samples; lines containing boxes (▪) and appearing as thick lines denote mixed samples.

[6] = various optimal glycerol concentrations (20-50%), U-937 cells, 30 μM CellProbe, 1 hour

## OCC(O)CO [glycerol]
Caspase 6 [1]; added unmixed glycerol ~50%
  effect on Caspase 6 assay: deleterious effect
Caspase 6 [1]; [6]
  detection of Caspase 6 activity: dramatic improvement
Caspase 3; raising the glycerol concentration from 0 to 50%, greater magnitude when unmixed
  relative signal, Caspase 3: significant relative signal increase
Caspase 3; [6]
  detection of Caspase 3 activity: dramatic improvement
Caspase 1; added unmixed glycerol ~40%
  effect on Caspase 1 assay: deleterious effect
Caspase 1; [6]
  detection of Caspase 1 activity: dramatic improvement

## OC[C@@H](O)[C@H](O)CO [threitol]
Caspase 6 [2]
  assay performance (detection sensitivity): improved assay performance

## CCOC(=O)CC[C@H](N)C(=O)OCC [glutamic acid diethyl ester]
Caspase 6 [2]
  detection sensitivity: did not enhance detection sensitivity

## OCCO [ethylene glycol]
Caspase 6 [2]
  assay performance (detection sensitivity): improved assay performance

## C[N+](C)(C)CC(=O)O [betaine]
HeLa cells [3]
  assay sensitivity: improved assay sensitivity
HeLa cells [4]
  assay sensitivity: improved assay sensitivity

## O=C(O)[C@@H]1CCCN1 [proline]
Caspase 6 [2]
  detection sensitivity: did not enhance detection sensitivity

## C[N+](C)(C)[O-] [trimethylamine N-oxide]
Caspase 6 [2]
  assay performance (detection sensitivity): improved assay performance

## OC[C@H]1O[C@H](O[C@H]2O[C@H](CO)[C@@H](O)[C@H](O)[C@H]2O)[C@H](O)[C@@H](O)[C@@H]1O [trehalose]
Caspase 6 [2]
  assay performance (detection sensitivity): improved assay performance

## N[C@@H](CCC(=O)[O-])C(=O)[O-].[K+].[K+] [glutamate, potassium glutamate]
Caspase 6 [5]; glutamate 1.5 M, 1.7 M, 1.8 M, 2.0 M, HeLa cells, 1 hour
  detection of Caspase 6 activity: dramatic improvement
Caspase 6 [5]; inclusion of glutamate, particularly if unmixed
  assay sensitivity: improved assay sensitivity

## O=C[C@H](O)[C@H](O)[C@H](O)CO [ribose]
Caspase 6 [2]
  assay performance (detection sensitivity): improved assay performance

## [Ca+2].[Cl-].[Cl-] [calcium chloride]
aminopeptidase
  effect on enzyme reaction with the assay compound: inhibitory

## C[S+](C)[O-] [DMSO, dimethyl sulfoxide]
Caspase
  signal ratio (induced/uninduced): signal ratio decrease
